Laboratory results taken from PMC5641551, “Chemical Proteomics for Target Discovery of Head-to-Tail Cyclized Mini-Proteins” (Frontiers in Chemistry, 2017).
No end group written: not given here.

Legend:
GST-tagged 14-3-3β = assay: co-precipitation of GST-tagged 14-3-3β with cyclotide probe and competitors; assay type: binding
Experimental: Splenocytes or Jurkat cells were lysed with 25 mM Tris-HCl pH 7.4, 40 mM KCl, 2.5 mM MgSO4 2.5 mM CaCl2, 2% (v/v) glycerol, 1 mM EDTA under repeated freeze-thaw cycles and 10 min sonification. All experiments were performed in buffer with 1x complete protease inhibitor cocktail (Hoffman-La Roche, Basel, Switzerland). Cell membranes and debris were pelleted for 30 min at 16,000 × g and the supernatant corresponds to the “soluble cell lysate.” Protein concentration was determined using a bicinchoninic acid assay kit (Thermo Scientific) and DTT (1 mM) was added to keep redox potential constant during binding experiments. Photo-affinity pull down samples were submitted to denaturing sodium dodecyl sulfate polyacrylamide gel electrophoresis (PAGE). For immunoblotting according to earlier published protocols (Gruber et al., [2007]; Bergmayr et al., [2013]) proteins were semi-dry transferred onto a nitrocellulose membrane 0.45 μM (Amersham Protran, GE Healthcare, Austria) using a Fast Semi-dry blotter (Bio-Rad) at 0.25 mA per gel for 1 h. Primary rabbit anti-GFP antibody (1:5,000) was from Invitrogen (A6455), rabbit anti-GST antibody (1:2,500) from Abcam (ab9085), and mouse anti-human calcineurin subunit A antibody (1:2,000) clone BE2.1 from eBioscience. Secondary ECL anti-mouse (NA931V) or ECL anti-rabbit (NA934VS) IgG antibodies (1:10,000) were conjugated with horse radish peroxidase (GE Healthcare). Chemo-luminescence signals were detected on an imaging system FluorChem HD2 (Alpha Innotech, CA, United States). For silver staining protein gels were treated immediately after electrophoresis with fixing solution EtOH/ddH2O/acetic acid 50/40/10% (v/v/v) for 20 min. Gels had to be washed acid free, first with 50% (v/v) EtOH for 10 min and with ddH2O for 2 h. Gels were exposed to sensitization buffer 0.025% Na2S2O3 in ddH2O for 3 min, followed by 2 min wash with ddH2O. Gels were silver loaded using a 0.15% AgNO3 solution for 45 min in the dark. The protein bands were stained in development buffer formaldehyde/Na2CO3 0.04/2% (v/w) under rigorous shaking. The reaction was quenched with 5% (v/v) acetic acid solution and the gels were stored until further processing in the stopping buffer at 4°C. Pixel quantification was carried out using ImageJ v1.47 (National Institute for Health).
Biotin-LC-LC-labeled (ThermoFisher) peptides (1–5 nmoles) with or without ([…]) were incubated with Jurkat cell or murine splenocyte cell lysates (150–500 μg proteins) for 2 h at 4°C in the presence of protease inhibitors. UV-activation of photo-crosslinking moiety benzophenone was induced by irradiation at 360 nm on ice for 15 min (Stratalinker, Stratagene, CA, United States). […]

EAE disease in mice = conditions: cited from earlier work
Text: 14-3-3s are ubiquitous adaptor proteins that are involved in cell signaling, cell cycle progression and apoptosis as well as protein-protein interaction and cellular transport (Aghazadeh and Papadopoulos, [2016]). The 14-3-3 family is often described as a chimera, since knockout of single isoforms may remain without or with minor phenotypic changes due to functional rescue through the recruitment of other family members. […] Many tumor suppressors or oncogenes are regulated by 14-3- ... || Meanwhile, plant-derived cyclotides are recognized for their pharmaceutical potential. […] Additionally, cyclotides are considered as promising templates for the design of stabilized, orally active peptide epitopes (Jagadish and Camarero, [2010]; Craik et al., [2012]). The cystine-knot motif is capable of tolerance to the incorporation of several amino acid long sequences without impacting its endogenous structure and stability. Using this ...

CGETCVGGTCNTPGCKCSWPVCTRNGLPV (also: bicyclic or more (positions not given here)) [[T20K]kB1, synthetic cyclotide drug candidate, Thr20 to Lys mutant of kalata B1]
binding to 14-3-3 family proteins (GST-tagged 14-3-3β; conclusion in words from competition co-precipitation): can bind to 14-3-3 family proteins | binding of probe [T20K,W23Bpa]kB1 to 14-3-3β in presence of competitor (GST-tagged 14-3-3β; immunoblot and far Western blot, 2 h at 4°C, competitors 150–500-fold molar excess): significantly altered | progression of typical symptoms in mouse model of multiple sclerosis (EAE disease in mice; oral administration, ref Thell et al., 2016): halted the progression of typical symptoms | symptoms of the EAE disease in mice (EAE disease in mice; reported, reference not given): reduce the symptoms of the EAE disease in mice
